For assay [1], the system named is normal human skin cell line (HSF). Description: one spot 100 µg/ml cytotoxicity, normal skin cell line HSF. Format: cell-based. The settings on record: Homo sapiens; for cytotoxicity at 100 µg/mL: HSF, one spot 100 µg/ml, read-out: Inhibition percent of HSF cell line; for inhibition at 100 µg/mL: supplement Table S1, read-out: one spot concentration inhibition, HSF.

Assay [2] concerns HUH7 (human liver carcinoma). Briefly: one spot 100 µg/ml cytotoxicity, HUH7. The format is cell-based. The settings on record: Homo sapiens, Huh-7, percent inhibition, read-out: one spot concentration inhibition, HUH7.
Assay [3] deals with HEPG2 (human liver carcinoma). Description: one spot 100 µg/ml cytotoxicity, HEPG2. The format is cell-based. Particulars: Homo sapiens, HepG2, percent inhibition, read-out: one spot concentration inhibition, HEPG2.
The subject of assay [4] is CACO2 (colon carcinoma human). Description: one spot 100 µg/ml cytotoxicity, CACO2. The format is cell-based. Particulars: Homo sapiens, Caco-2, percent inhibition, read-out: one spot concentration inhibition, CACO2.
Assay [5] concerns A549 (human lung carcinoma). Briefly: one spot 100 µg/ml cytotoxicity, A549. The format is cell-based. Particulars: Homo sapiens, A549, percent inhibition, read-out: one spot concentration inhibition, A549.
Assay [6] deals with HEPG2 cells. Description: Annexin V-FITC/PI apoptosis assay. The format is cell-based, human. Here is the method: Showing a marked rise in overall apoptosis relative to the untreated control. […] HEPG2 cell death increases by 59 times following treatment with compounds 3. Therefore compound 3 has a biological mechanism that inhibits the proliferation of HEPG2 cells and has cytotoxic effects against cancer.
The Annexin-V FITC apoptosis assay of compounds 3 against HEPG2 was performed according to (BioVision Research Products (code k101-25). (www.biovision.com).

For the next assay, the system named is HEPG2 cell line. Briefly: MTT in vitro cytotoxicity, HEPG2. The format is cell-based, human. The settings on record: for Selectivity Index = IC50 of HSF/IC50 of HEPG2: HSF vs HEPG2; for IC50: Homo sapiens, MTT, HEPG2, read-out: IC50 for HEPG2 ± S.D. On the procedure: (§1) Using the MTT test method, the in vitro cytotoxicity of our synthesized compounds at different doses ranging from […] was examined in two cell lines, HEPG2 and MCF7, to examine 50% of the cancer cells dying.
(§2) Some of the synthesized compounds were tested as anticancer activity for the IC50 against two cell lines HEPG2 and MCF7 cells according to method. All cell lines were obtained from national cancer institute, Cairo—Egypt.

The subject of assay [7] is MCF7 (human breast carcinoma). Description: one spot 100 µg/ml cytotoxicity, MCF7. The format is cell-based. Particulars: Homo sapiens, MCF7, percent inhibition, read-out: one spot concentration inhibition, MCF7.
Assay [8] has as its system HCT116 (colon carcinoma human). Description: one spot 100 µg/ml cytotoxicity, HCT116. Format: cell-based. The settings on record: Homo sapiens, HCT-116, percent inhibition, read-out: one spot concentration inhibition, HCT116.
For assay [9], the system named is MG-63 (human osteosarcoma). Briefly: one spot 100 µg/ml cytotoxicity, MG-63. The format is cell-based. Particulars: Homo sapiens, MG-63, percent inhibition, read-out: one spot concentration inhibition, MG-63.
For assay [10], the system named is H460 (human lung carcinoma). Briefly: one spot 100 µg/ml cytotoxicity, H460. Format: cell-based. The settings on record: Homo sapiens, NCI-H460, percent inhibition, read-out: one spot concentration inhibition, H460.
A further assay deals with HSF. Briefly: IC50 against normal cell line HSF. Format: cell-based, human. The settings on record: Homo sapiens; normal skin cell line HSF; read-out: IC50 FOR HSF ± S.D.
Assay [11] deals with HEPG2 cells. Briefly: Cell cycle analysis by DNA flow cytometry. Format: cell-based, human. From the text:
After adding compound 3, we explore the growth inhibitory cell cycle mechanism of HEPG2 cell lines using DNA flow cytometry to examine the control and advancement of the cell cycle in HEPG2 cancer cells. […] When compound 3 was applied to HEPG2 cells, the cells cycled between the G0-G1 and G2/M phases (Fig. 4, Table 3). […] Compound 3 can also stop HEPG2 cells at the G0–G1% stage of the cell cycle, with an increase in the G0–G1phase fraction from 34.54 to 40.10.
The cell cycle arrests of compound 3 against HEPG2 was carried out according to Abcam method (code ab139418), (www.abcam.co.jp).

In a further assay the test system is MCF7 cell line. Briefly: MTT in vitro cytotoxicity, MCF7. Format: cell-based, human. Particulars: for Selectivity Index = IC50 of HSF/ IC50 of MCF7: HSF vs MCF7; for IC50: Homo sapiens, MTT, MCF7, read-out: IC50 for MCF7 ± S.D. Here is the method:
as §1, §2

This is an account of results in article PMC11846289, “New tetrahydroisoquinolines bearing nitrophenyl group targeting HSP90 and RET enzymes: synthesis, characterization and biological evaluation” (BMC Chemistry, 2025).

Structures are written as SMILES. ≈ marks a conversion by molar mass, not a printed value. Entries after “also recorded” stand apart in the source; their conditions may differ.

What is called IC50 is the concentration that inhibits the measured activity by half. For `CSc1nc(C)c2c(c1C#N)CC(C)(O)C(C(C)=O)C2c1cccc([N+](=O)[O-])c1` (stereo not shown) [Compound 3, 7-Acetyl-4-cyano-1,6-dimethyl-6-hydroxy-3-methylthio-8-(3-nitrophenyl)−5,6,7,8-tetrahydroisoquinoline], in assay [1], the cytotoxicity at 100 µg/mL is 52%. Moreover, the inhibition at 100 µg/mL turned out to be 50.6% in assay [1]; 32.9% in [2]; 67.7% in [3]; 59.2% in assay [4]; 50.6% in assay [5]; 71.5% in assay [7]. In addition, the inhibition at 100 µg/mL in [8] was found to be 67.1%; in assay [9], 44.3%; in [10] it was 62%. Also, in the assay with HEPG2 cells [6] (HEPG2, control 0.2), the “Apoptosis Early” value came out at 13.45%. Moreover, the “Apoptosis Late” value in the assay with HEPG2 cells [6] (HEPG2, control 0.31) is given as 16.78%. Besides, in the assay on HEPG2 cells [6] (HEPG2, control 1.36), the Necrosis is 2.96%. The “Apoptosis Total” value in the assay with HEPG2 cells [6] (HEPG2, control 1.87) came to 33.19%. Moreover, the “fold increase in HEPG2 cell line apoptosis” value in the assay with HEPG2 cells [6] (relative to untreated control) is reported as 59 fold. Besides, the “Selectivity Index = IC50 of HSF/IC50 of HEPG2” value with HEPG2 cell line amounted to 1.2. In addition, the IC50 with HEPG2 cell line turned out to be 75 ± 0.063 µg/mL (≈ 182 µM); in the assay on HSF it was 96 µg/mL (≈ 233 µM); in the assay with MCF7 cell line it was 33 ± 0.034 µg/mL (≈ 80.2 µM). The “cell cycle arrest phase” value in the assay with HEPG2 cells [11] (HEPG2) is recorded as “G2/M phase; also recorded: G0-G1, G2/M phases”. The “%G2/M” value in the assay with HEPG2 cells [11] (HEPG2, 48 h at IC50 75 µg/ml, control 12.12) was found to be 25.67%. The “%S” value in the assay on HEPG2 cells [11] (HEPG2, 48 h at IC50 75 µg/ml, control 23.51) worked out at 22.10%. In addition, the “%G0–G1” value with HEPG2 cells [11] (HEPG2, 48 h at IC50 75 µg/ml, control 34.54) stood at 40.1%. The “Selectivity Index = IC50 of HSF/ IC50 of MCF7” value in the assay with MCF7 cell line was 2.9.

Consider `CC(=O)C1C(c2ccc([N+](=O)[O-])cc2)c2c(C)nc3sc(C(=O)Nc4cccc5ccccc45)c(N)c3c2CC1(C)O` (stereo not shown) [Compound 9b, 7-Acetyl-1-amino-N-(naphthalen-1-yl)−5,8-dimethyl-8-hydroxy-6-(4-Nitrophenyl)−6,7,8,9-tetrahydrothieno[2,3-c]isoquinoline-2-carboxamide], for which the cytotoxicity at 100 µg/mL in [1] was determined as 58%. The inhibition at 100 µg/mL worked out at 56.2% in [1]; 35.7% in [2]; 70% in [3]; 51.7% in [4]; 45% in assay [5]; 55.2% in [7]. The inhibition at 100 µg/mL amounted to 55.6% in assay [8], 30.2% in [9] and 58% in assay [10]. For the same molecule, in the assay on HEPG2 cell line, the “Selectivity Index = IC50 of HSF/IC50 of HEPG2” value is listed as 0.98. Besides, the results for the half-maximal inhibitory concentration (IC50) in the assay on HEPG2 cell line, in the assay with HSF and with MCF7 cell line were 87 ± 0.61 µg/mL (≈ 150 µM), 86 µg/mL (≈ 148 µM) and 80 ± 0.05 µg/mL (≈ 138 µM), respectively. Further, the “Selectivity Index = IC50 of HSF/ IC50 of MCF7” value in the assay with MCF7 cell line stood at 1.1.

Take `CC(=O)C1C(c2cccc([N+](=O)[O-])c2)c2c(C)nc3sc(C(=O)Nc4nc5ccccc5s4)c(N)c3c2CC1(C)O` (stereo not shown) [Compound 10, 7-Acetyl-1-amino-N-(benzthiazol-2-yl)−5,8-dimethyl-8-hydroxy-6-(3-nitrophenyl)−6,7,8,9-tetrahydrothieno[2,3-c]isoquinoline-2-carboxamide]: the cytotoxicity at 100 µg/mL in [1] was determined as 56%. In addition, the inhibition at 100 µg/mL in assay [1] came to 54.7%; in [2], 21.8%; in assay [3], 55.2%; in assay [4], 60.6%; in assay [5], 47.4%; in assay [7], 75.4%. Further, the figures for the inhibition at 100 µg/mL in [8], in assay [9] and in assay [10] were 59.2%, 46.7% and 63.3%, respectively. Moreover, the IC50 is more than 100 µg/mL in the assay on HEPG2 cell line, 89 µg/mL (≈ 151 µM) in the assay on HSF and more than 100 µg/mL in the assay with MCF7 cell line.

Regarding `COc1cccc2c1C(=O)c1c(O)c3c(c(O)c1C2=O)C[C@@](O)(C(=O)CO)C[C@@H]3O[C@H]1C[C@H](N)[C@H](O)[C@H](C)O1` [Doxorubicin, reference compound], the cytotoxicity at 100 µg/mL in [1] stood at 60%. For the same molecule, the inhibition at 100 µg/mL in [1] came out at 58.9%; in assay [2], 52.8%; in [3], 58.9%; in assay [4], 74.8%; in assay [5], 32%; in assay [7], 74%. In addition, the inhibition at 100 µg/mL in assay [8] was 70.9%; in [9], 63.8%; in [10], 72.9%. Besides, in the assay on HEPG2 cell line, the “Selectivity Index = IC50 of HSF/IC50 of HEPG2” value turned out to be 20.1. The IC50 is 4.13 ± 0.054 µg/mL (≈ 7.6 µM) with HEPG2 cell line, 83 µg/mL (≈ 153 µM) in the assay on HSF and 4.58 ± 0.081 µg/mL (≈ 8.43 µM) in the assay on MCF7 cell line. The “Selectivity Index = IC50 of HSF/ IC50 of MCF7” value with MCF7 cell line came out at 18.1.
